Experimental data from patent US6120997A, “Nucleic acid binders having an hydroxyamine motif” (The Scripps Research Institute, priority 1998, dated 2000).

Tests used:
AS-wt = test: SPR binding of aminoglycosides to decoding region A-site model AS-wt; set-up: species or system E. coli; settings: for specificity for AS-wt over negative controls (in words): Example 5, HBS-buffer
Method: The RNA binding properties of 100-800 were analyzed using a surface plasmon resonance based assay that was recently developed in these laboratories. This assay allows the determination of both affinity and specificity of small molecule-RNA interactions. For the analysis, the compounds were injected over a matrix containing RNA that was immobilized through a biotin tag and the equilibrium binding values were recorded at various concentrations.
Non-linear curve fitting was then used to determine the values of the dissociation constants (KD). The specificity of binding, i.e. the ability to discriminate between different RNA sequences was evaluated by comparing the binding to the target sequence (AS-wt) and the negative control (AS-U1495A). The ratio of KD(AS-U1495A) to KD(AS-wt) was taken to be a representation of the specificity of the binding event.
(§1) For the quantitative measurement of aminoglycoside binding to these sequences, we utilized our recently developed SPR-based assay. Biotinylated derivatives of all sequences were prepared by in vitro transcription in the presence of guanosine 5'-monophosphorothioate followed by alkylation with a biotin iodoacetamide derivative. The RNA conjugates were then immobilized onto streptavidin coated SPR-sensorchips for analysis.
(§2) In the same manner as illustrated for paromomycin, a panel of aminoglycosides was screened and the results are compiled in the table of FIGS. 46 and 47. In addition to the naturally occuring aminoglycoside antibiotics, some of the compounds in FIG. 46 are synthetically derived, unnatural aminoglycosides. The number of independent determinations for each dissociation constant ranged from 1-3. […] All data were recorded under near physiological salt conditions (HBS-buffer: 150 mM NaCl, 10 mM HEPES, pH7.4, 3.4 mM EDTA) unless noted otherwise. Data points were taken at concentrations ranging from […]. Below this concentration range, surface transport limitations prevent the attainment of equilibrium.
Plasmon resonance and antimicrobial testing for Example 4. Synthesis of the biotinylated RNA and surface plasmon resonance detected binding experiments were performed as described vida supra. Solution conditions: 150 mM NaCl, 10 mM HEPES (pH 7.4), 3.4 mM EDTA. KD determination from the binding curves.
The fitting routine of the program kaleidagraph was used for all calculations. The starting values for a and b were set to 1 and 0 respectively. The number of KD values used in the fitting was adjusted depending on the observed range of equivalents bound but generally varied from 3 to 4.
General Procedures for SPR Binding Studies done in Example 5. Samples were prepared by serial dilutions from stock solutions in RNase free microfuge tubes (Ambion) and were centrifuged at 14000 rpm for degassing. Unless otherwise noted, all binding studies were carried out using HBS buffer (Pharmacia Biosensor AB) which was used as obtained. All procedures for binding studies were automated as methods using repetitive cycles of sample injection and regeneration. Typically, buffer was injected in the first two cycles to establish a stable baseline value. Samples were injected at a flowrate of […] using either the KINJECT command. All aminoglycoside samples were injected from autoclaved 7 mm plastic vials that were capped with pierceable plastic crimp caps. To minimize carry over, samples were injected in order of increasing concentration. The running buffer was identical to the injection buffer. Expected values for the equilibrium response of one equivalent of analyte were calculated from the relative molecular weight of the analyte and the immobilized RNA ligand in each flowcells and adjusted with a correction factor of 0.76 which arises from the different molar refractive indices of RNA and the analyte. […]

AS-U1406A = test: SPR binding of aminoglycosides to AS-U1406A; settings: Example 5, HBS-buffer
Text: To understand the specificity of ribosomal RNA recognition by the various aminoglycosides, we decided to investigate their binding to AS-wt and compare the results to a series of control mutants which have likewise been characterized by footprinting (FIG. 44). These include the negative controls AS-U1495A, AS-DA1492 and AS-res. […] In AS-U1495A a critical hydrogen bond acceptor which interacts with N1 of the 2-deoxystreptamine ring has been removed. The mutation DA1492 destroys the bulged pocket in which paromomycin ring II (the glucose ring) is positioned. Finally, in the AS-res mutant the G1491:C1409 base pair which creates the floor of the binding pocket is disrupted by replacing it with a C1491:U1409 mismatch. Breaking up this critical base pair in the E. coli 16S ribosomal RNA causes resistance to a broad range of aminoglycosides. In contrast to these negative controls, the mutant hairpin AS-U1406A still contains all necessary elements for specific aminoglycoside recognition and binds paromomycin with wild type specificity.
as §1, §2
General Procedures for SPR Binding Studies done in Example 5. Samples were prepared by serial dilutions from stock solutions in RNase free microfuge tubes (Ambion) and were centrifuged at 14000 rpm for degassing. Unless otherwise noted, all binding studies were carried out using HBS buffer (Pharmacia Biosensor AB) which was used as obtained. All procedures for binding studies were automated as methods using repetitive cycles of sample injection and regeneration. Typically, buffer was injected in the first two cycles to establish a stable baseline value. Samples were injected at a flowrate of […] using either the KINJECT command. All aminoglycoside samples were injected from autoclaved 7 mm plastic vials that were capped with pierceable plastic crimp caps. To minimize carry over, samples were injected in order of increasing concentration. The running buffer was identical to the injection buffer. Expected values for the equilibrium response of one equivalent of analyte were calculated from the relative molecular weight of the analyte and the immobilized RNA ligand in each flowcells and adjusted with a correction factor of 0.76 which arises from the different molar refractive indices of RNA and the analyte. Binding constants were calculated by fitting the recorded binding isotherm (equivalents bound vs, concentration) to a model with n independent binding constants using the fitting program provided in the program Kaleidagraph (Macintosh).

Neo16-bd = test: SPR binding of aminoglycosides to Neo16-bd aptamer
Method: Conditions: 10 mM HEPES (pH 7.4), 0.1 mM EDTA and NaCl as indicated.
The binding of aminoglycosides to RNA is likely to involve substantial ionic contributions and therefore should be strongly influenced by competing buffer ions. […] We studied the salt dependence of neomycin B binding to RBE3, RBE3-neg and Neo16-bd (FIG. 14) by varying the concentration of NaCl included in the injection buffer (10 mM HEPES, pH 7.4, 0.1 mM EDTA). […] This neomycin binding motif was obtained by in vitro selection under conditions of high ionic strength.
To further improve our understanding of specific aminoglycoside recognition, we have also included an artificial aminoglycoside receptor that was evolved in vitro to recognize an aminoglycoside. A number of RNA aptamers for small molecules have been reported in recent years. Among them are aptamers that recognize the aminoglycosides tobramycin, lividomycin and kanamycin.
For comparison, the corresponding values for AS-wt are also included.
General Procedures for SPR Binding Studies done in Example 5. Samples were prepared by serial dilutions from stock solutions in RNase free microfuge tubes (Ambion) and were centrifuged at 14000 rpm for degassing. Unless otherwise noted, all binding studies were carried out using HBS buffer (Pharmacia Biosensor AB) which was used as obtained. All procedures for binding studies were automated as methods using repetitive cycles of sample injection and regeneration. Typically, buffer was injected in the first two cycles to establish a stable baseline value. Samples were injected at a flowrate of […] using either the KINJECT command. All aminoglycoside samples were injected from autoclaved 7 mm plastic vials that were capped with pierceable plastic crimp caps. To minimize carry over, samples were injected in order of increasing concentration. The running buffer was identical to the injection buffer.

Molecule: N[C@H]1[C@@H](O[C@H]2[C@H](O)[C@@H](O)[C@H](N)C[C@@H]2N)O[C@H](CO)[C@@H](O)[C@@H]1O [Paromamine]
- specificity for AS-wt over negative controls (in words) (AS-wt): substantial decrease in binding to AS-wt and a loss of most specificity

Molecule: CN[C@@H]1[C@@H](O[C@H]2O[C@H](CO)[C@@H](N)[C@H](O)[C@H]2O)OC2C[C@@H](N)[C@@H](O[C@H]3[C@H](O)[C@@H](O)[C@H](N)C[C@@H]3N)OC2[C@@H]1O (some centres unmarked) [Apramycin]
- specificity for AS-wt over negative controls (in words) (AS-wt): only marginal if any specificity for AS-wt

Molecule: CN[C@H]1C[C@@H](N)[C@H](O)[C@@H](O[C@@H]2O[C@H](CO)[C@H](O)[C@@H]3OC4(O[C@H]23)O[C@H]([C@@H](N)CO)[C@H](O)[C@H](O)[C@H]4O)[C@@H]1O (some centres unmarked) [Hygromycin B]
- specificity for AS-wt over negative controls (in words) (AS-wt): none

Molecule: NCC1OC(OC2C(N)CC(N)C(OC3OC(CO)C(O)C(N)C3O)C2O)C(O)C(O)C1O (centres unmarked) [Kanamycin A]
- binding to AS-U1406A mutant relative to AS-wt (in words) (AS-U1406A): not increased in the U1406A mutant relative to AS-wt but rather decreased
- specificity for AS-wt over negative controls (in words) (AS-wt): only very moderate specificity for AS-wt

Molecule: Butirosin
- binding to AS-U1406A mutant relative to AS-wt (in words) (AS-U1406A): significantly enhanced
- specificity for AS-wt over negative controls (in words) (AS-wt): only moderate specificity for AS-wt

Molecule: Gentamycin
- binding to AS-U1406A mutant relative to AS-wt (in words) (AS-U1406A): not increased in the U1406A mutant relative to AS-wt but rather decreased
- specificity for AS-wt over negative controls (in words) (AS-wt): only very moderate specificity for AS-wt

Molecule: NC[C@H]1O[C@H](O[C@H]2[C@H](O)[C@@H](O[C@H]3O[C@H](CO)[C@@H](O)[C@H](N)[C@H]3O)[C@H](N)C[C@@H]2N)[C@H](N)C[C@@H]1O [Tobramycin]
- binding to AS-U1406A mutant relative to AS-wt (in words) (AS-U1406A): not increased in the U1406A mutant relative to AS-wt but rather decreased
- specificity for AS-wt over negative controls (in words) (AS-wt): only very moderate specificity for AS-wt

Molecule: NC[C@H]1O[C@H](O[C@H]2[C@H](O)[C@@H](O[C@H]3O[C@H](CO)[C@@H](O)[C@H](N)[C@H]3O)[C@H](N)C[C@@H]2N)[C@H](N)[C@@H](O)[C@@H]1O [Kanamycin B]
- binding to AS-U1406A mutant relative to AS-wt (in words) (AS-U1406A): not increased in the U1406A mutant relative to AS-wt but rather decreased
- specificity for AS-wt over negative controls (in words) (AS-wt): only very moderate specificity for AS-wt

Molecule: NC[C@H]1O[C@H](O[C@H]2[C@H](O[C@@H]3O[C@H](CO)[C@@H](O[C@H]4O[C@@H](CO)[C@@H](O)[C@H](O)[C@H]4O)[C@H]3O)[C@@H](O)[C@H](N)C[C@@H]2N)[C@H](N)[C@@H](O)[C@@H]1O [Compound 700, 2"',6"'-desamino-2"'-6"'-hydroxy neomycin B]
- RNA binding, affinity or specificity for AS-wt (in words) (AS-wt; Example 4): virtually the same RNA binding profile

Molecule: NC[C@@H]1O[C@H](O[C@H]2[C@@H](O)[C@H](O[C@@H]3[C@@H](O)[C@H](N)C[C@H](N)[C@H]3O[C@H]3O[C@H](CN)[C@@H](O)[C@H](O)[C@H]3N)O[C@@H]2CO)[C@H](O)[C@@H](O)[C@@H]1O [Compound 800, 2"'-desamino-2"'-hydroxy neomycin B]
- Kd (Neo16-bd; HBS-buffer, read-out: Kd, Neo16bd): < 0.01 µM
- affinity improvement for AS-wt in relation to 700 (AS-wt): 40 fold

Molecule: NC[C@H]1O[C@H](O[C@H]2[C@H](O[C@@H]3O[C@H](CO)[C@@H](O)[C@H]3O)[C@@H](O)[C@H](N)C[C@@H]2N)[C@H](N)[C@@H](O)[C@@H]1O [Ribostamycin]
- binding to AS-U1406A mutant relative to AS-wt (in words) (AS-U1406A): only weakly enhanced
- binding to Neo16bd (in words) (Neo16-bd): bound more tightly to the aptamer than paromomycin
- lower affinity for AS-wt relative to neamine (AS-wt): 3 fold
- specificity for AS-wt over negative controls (in words) (AS-wt): low
